The source of these data is patent US8017612B2, “Piperazine compound and use thereof as a HCV polymerase inhibitor” (priority 2006, dated 2011).

A word on the IC50: it is the concentration that gives 50% inhibition. Low values mean inhibition by little substance, high ones a need for much substance.

The target of assay [1] is T1, HCV polymerase (NS5B) type 1a (Hepatitis C virus genotype 1a, UniProt P26664).
T1 construct: made in house; host or cells: Escherichia coli (by the 'similar method' of the 1b enzyme)
The assay can be described thus: Assay of enzyme (HCV polymerase) inhibitory activity, type 1a enzyme. The format is biochemical, HCV type 1a (cloned from the blood of patients). The procedure, abridged:
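NS5B Δ47 C-term His6 (type 1a, 1.5 μg/ml); substrate RNA 5 μg/ml; ATP/GTP/CTP 50 μM, UTP 2 μM + [5,6-3H]UTP; Tris pH 7.5, MgCl2 5 mM; 25° C, 60 min. TCA/pyrophosphate stop, GF/B filter, scintillation. IC50 vs no-compound control.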

Assay [2] addresses T2, HCV polymerase (NS5B) type 1b (Hepatitis C virus genotype 1b, UniProt P26663).
T2 construct: a region encoding NS5B (J Virol 1991 March, 65(3), 1105-13, 544 amino acids after deletion of 47 amino acids on the C-terminal); 6xHis (C); made in house; host or cells: Escherichia coli
Kind of assay: Assay of enzyme (HCV polymerase) inhibitory activity, type 1b enzyme. The format is biochemical, HCV BK strain (type 1b). The essentials: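 Rxn: NS5B 1b (BK, ΔC47, His6) 0.5 μg/ml; substrate RNA 5 μg/ml; ATP/GTP/CTP 50 μM, UTP 2 μM + [5,6-3H]UTP; 20 mM Tris pH 7.5, 5 mM MgCl2, 50 mM NaCl, 1 mM EDTA/DTT. 25 °C, 60 min. Stop with TCA/pyrophosphate, filter, scintillation count; IC50 vs. untreated.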

Where [3] appears, read: HCV polymerase inhibitory activity IC50, 1a, type 1a enzyme.
Where [4] appears, read: HCV polymerase inhibitory activity IC50, 1b, type 1b enzyme.

The structures appear in SMILES notation. A value given as a limit tells only on which side of the number the result lay.

As to `O=C(NCc1ccc(C(F)(F)F)cc1)[C@H]1CN(c2cnc3cncnc3n2)CCN1S(=O)(=O)c1ccc(OC(F)(F)F)cc1` [Example 660, (R)-4-pteridin-7-yl-1-(4-trifluoromethoxy-benzenesulfonyl)-piperazine-2-carboxylic acid 4-trifluoromethyl-benzylamide], the IC50 in assay [1] (HCV polymerase inhibitory activity (IC50), 1a, type 1a enzyme 1.5 μg/ml, 25° C., 60 min) was under 0.1 µM; in assay [2] (HCV polymerase inhibitory activity (IC50), 1b, type 1b enzyme 0.5 μg/ml, 25° C., 60 min) it was under 0.1 µM.
With `CSc1ccc(CNC(=O)[C@H]2CN(c3cnc4cncnc4n3)CCN2S(=O)(=O)c2ccc(OC(F)(F)F)cc2)cc1` [Example 661, (R)-4-pteridin-7-yl-1-(4-trifluoromethoxy-benzenesulfonyl)-piperazine-2-carboxylic acid 4-methylsulfanyl-benzylamide], the IC50 in assay [1] (setting [3]) and in assay [2] (setting [4]) was under 0.1 µM throughout.
Take `CCCN1CC=C(CNC(=O)[C@H]2CN(c3cnc4cncnc4n3)CCN2S(=O)(=O)c2ccc(OC(F)(F)F)cc2)CC1` [Example 662, (R)-4-pteridin-7-yl-1-(4-trifluoromethoxy-benzenesulfonyl)-piperazine-2-carboxylic acid (1-propyl-1,2,3,6-tetrahydro-pyridin-4-ylmethyl)-amide]: the results for the IC50 in assay [1] (setting [3]) and in assay [2] (setting [4]) were over 1 µM and 0.1 to 1 µM, respectively.
As to `O=C(NCc1ccc(-c2ccccc2)cc1)[C@H]1CN(c2cnc3cncnc3n2)CCN1S(=O)(=O)c1ccc(OC(F)(F)F)cc1` [Example 663, (R)-4-pteridin-7-yl-1-(4-trifluoromethoxy-benzenesulfonyl)-piperazine-2-carboxylic acid (biphenyl-4-ylmethyl)-amide], the IC50 in assay [1] (setting [3]) and in assay [2] (setting [4]) was under 0.1 µM each time.
In the case of `CCC(F)(F)c1ccc(CNC(=O)[C@H]2CN(c3nc4c(=O)[nH]ncc4s3)CCN2S(=O)(=O)c2ccc(OC(F)(F)F)cc2)cc1` [Example 664, (R)-4-(4-oxo-4,5-dihydro-thiazolo[4,5-d]pyridazin-2-yl)-1-(4-trifluoromethoxy-benzenesulfonyl)-piperazine-2-carboxylic acid 4-(1,1-difluoro-propyl)-benzylamide], the half-maximal inhibitory concentration (IC50) in assay [1] (setting [3]) and in assay [2] (setting [4]) was under 0.1 µM each time.
With `CC(C)(C)c1ccc(CNC(=O)[C@H]2CN(C(=O)/C=C\C(=O)O)CCN2S(=O)(=O)c2ccc(OC(F)(F)F)cc2)cc1` [Example 665, (Z)-4-[(R)-3-(4-tert-butyl-benzylcarbamoyl)-4-(4-trifluoromethoxy-benzenesulfonyl)-piperazin-1-yl]-4-oxo-but-2-enoic acid], the IC50 in assay [1] (setting [3]) and in assay [2] (setting [4]) was over 1 µM in each case.
As for `CCC(F)(F)c1ccc(CNC(=O)[C@H]2CN(C(=O)/C=C\C(=O)O)CCN2S(=O)(=O)c2ccc(OC(F)(F)F)cc2)cc1` [Example 666, (Z)-4-[(R)-3-[4-(1,1-difluoro-propyl)-benzylcarbamoyl]-4-(4-trifluoromethoxy-benzenesulfonyl)-piperazin-1-yl]-4-oxo-but-2-enoic acid], the IC50 in assay [1] (setting [3]) and in assay [2] (setting [4]) was over 1 µM throughout.
For `CCC(F)(F)c1ccc(CNC(=O)[C@H]2CN(C(=O)/C=C/C(=O)O)CCN2S(=O)(=O)c2ccc(OC(F)(F)F)cc2)cc1` [Example 667, (E)-4-[(R)-3-[4-(1,1-difluoro-propyl)-benzylcarbamoyl]-4-(4-trifluoromethoxy-benzenesulfonyl)-piperazin-1-yl]-4-oxo-but-2-enoic acid], the IC50 in assay [1] (setting [3]) is over 1 µM; in assay [2] (setting [4]), 0.1 to 1 µM.
Consider `CC(C)(C)c1ccc(CNC(=O)[C@H]2CN(C(=O)/C=C/C(=O)O)CCN2S(=O)(=O)c2ccc(OC(F)(F)F)cc2)cc1` [Example 668, (E)-4-[(R)-3-(4-tert-butyl-benzylcarbamoyl)-4-(4-trifluoromethoxy-benzenesulfonyl)-piperazin-1-yl]-4-oxo-but-2-enoic acid], for which the IC50 in assay [1] (setting [3]) and in assay [2] (setting [4]) was over 1 µM each time.
Turning to `CC(=O)N1CCN(S(=O)(=O)c2ccc(OC(F)(F)F)cc2)[C@@H](C(=O)NC[C@H]2CC[C@H](C(=O)O)CC2)C1` [Example 669, trans-4-({[(R)-4-acetyl-1-(4-trifluoromethoxy-benzenesulfonyl)-piperazine-2-carbonyl]-amino}-methyl)-cyclohexanecarboxylic acid], the IC50 in assay [1] (setting [3]) and in assay [2] (setting [4]) was over 1 µM in each case.
Turning to `CC(=O)N1CCC(CNC(=O)[C@H]2CN(C(C)=O)CCN2S(=O)(=O)c2ccc(OC(F)(F)F)cc2)CC1` [Example 670, (R)-4-acetyl-1-(4-trifluoromethoxy-benzenesulfonyl)-piperazine-2-carboxylic acid (1-acetyl-piperidin-4-ylmethyl)-amide], the IC50 in assay [1] (setting [3]) and in assay [2] (setting [4]) was over 1 µM each time.
Consider `COc1ccccc1CCNC(=O)[C@H]1CN(C(C)=O)CCN1S(=O)(=O)c1ccc(OC(F)(F)F)cc1` [Example 671, (R)-4-acetyl-1-(4-trifluoromethoxy-benzenesulfonyl)-piperazine-2-carboxylic acid [2-(2-methoxy-phenyl)-ethyl]-amide], for which the IC50 in assay [1] (setting [3]) and in assay [2] (setting [4]) was over 1 µM in each case.
For `COc1cccc(CCNC(=O)[C@H]2CN(C(C)=O)CCN2S(=O)(=O)c2ccc(OC(F)(F)F)cc2)c1` [Example 672, (R)-4-acetyl-1-(4-trifluoromethoxy-benzenesulfonyl)-piperazine-2-carboxylic acid [2-(3-methoxy-phenyl)-ethyl]-amide], the IC50 in assay [1] (setting [3]) and in assay [2] (setting [4]) was over 1 µM throughout.
Consider `COc1ccc(CCNC(=O)[C@H]2CN(C(C)=O)CCN2S(=O)(=O)c2ccc(OC(F)(F)F)cc2)cc1` [Example 673, (R)-4-acetyl-1-(4-trifluoromethoxy-benzenesulfonyl)-piperazine-2-carboxylic acid [2-(4-methoxy-phenyl)-ethyl]-amide], for which the IC50 in assay [1] (setting [3]) and in assay [2] (setting [4]) was over 1 µM each time.
For the molecule `CC(=O)N1CCN(S(=O)(=O)c2ccc(OC(F)(F)F)cc2)[C@@H](C(=O)NCCc2cccc(O)c2)C1` [Example 674, (R)-4-acetyl-1-(4-trifluoromethoxy-benzenesulfonyl)-piperazine-2-carboxylic acid [2-(3-hydroxy-phenyl)-ethyl]-amide], the IC50 in assay [1] (setting [3]) and in assay [2] (setting [4]) was over 1 µM throughout.
Turning to `CC(=O)N1CCN(S(=O)(=O)c2ccc(OC(F)(F)F)cc2)[C@@H](C(=O)NCCc2ccc(O)cc2)C1` [Example 675, (R)-4-acetyl-1-(4-trifluoromethoxy-benzenesulfonyl)-piperazine-2-carboxylic acid [2-(4-hydroxy-phenyl)-ethyl]-amide], the IC50 in assay [1] (setting [3]) and in assay [2] (setting [4]) was over 1 µM in each case.
As to `CCC(F)(F)c1ccc(CNC(=O)[C@H]2CN(c3cnc4[nH]cnc4n3)CCN2S(=O)(=O)c2ccc(OC(F)(F)F)cc2)cc1` [Example 676, (R)-4-(1H-imidazo[4,5-b]pyrazin-5-yl)-1-(4-trifluoromethoxy-benzenesulfonyl)-piperazine-2-carboxylic acid 4-(1,1-difluoro-propyl)-benzylamide], the half-inhibitory concentration (IC50) in assay [1] (setting [3]) and in assay [2] (setting [4]) was under 0.1 µM each time.
Turning to `CCC(F)(F)c1ccc(CNC(=O)[C@H]2CN(C(=O)NCC(=O)O)CCN2S(=O)(=O)c2ccc(OC(F)(F)F)cc2)cc1` [Example 677, {[(R)-3-[4-(1,1-difluoro-propyl)-benzylcarbamoyl]-4-(4-trifluoromethoxy-benzenesulfonyl)-piperazine-1-carbonyl]-amino}-acetic acid], the half-inhibitory concentration (IC50) in assay [1] (setting [3]) and in assay [2] (setting [4]) was over 1 µM throughout.
